Tested on: Saccharomyces cerevisiae ABC16-Green Monster
Experiment: growth inhibition at single dose (up to 150 µM), below the 70% cut-off for dose-response; higher = more potent
Details: 18 h; 30 °C; YPD
In short: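 The entry is percent growth inhibition of drug-sensitive S. cerevisiae ABC16-Green Monster cells. After overnight growth in YPD at 30 °C, cells were diluted to OD600 0.1–0.2 and exposed to each library compound at 150 µM in 200 µl per well, in biological duplicates with untreated cultures beside them, and OD600 was read at 0 h and after 18 h at 30 °C. Any compound under 70% in both replicates was not carried to dose-response.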

SMILES	growth inhibition at single dose [%]
CCC(O)c1ccc(Br)cc1NC(=O)c1cccc(Cl)c1 (configuration not stated)	< 70
COc1ccc(OC(C)C(=O)Nc2ccc(Cl)cc2C)cc1 (configuration not stated)	< 70
CC(C)(C)CC(C)(C)NCC(O)COc1ccc2c(c1)CCC2 (configuration not stated)	< 70
Oc1ccc(Br)cc1CN1CCN(Cc2cccc(F)c2)CC1	< 70
CCOC(=O)c1[nH]c(C)c(C(=O)OCC(=O)Nc2ccc(Cl)cn2)c1C	< 70
COc1ccc(OC)c(NCc2ccc3nc(N)nc(N)c3c2Cl)c1	< 70
COc1ccc(-c2nc(-c3cccc(NC(=O)Cc4ccc(F)cc4)c3)no2)cc1OC	< 70
CC(C)NS(=O)(=O)c1cccc(CNc2ncnc3ccccc23)c1	< 70
Cc1cc(=O)nc(N/N=C/c2c(C)nn(-c3cccc(C(F)(F)F)c3)c2Cl)[nH]1	< 70
CNc1snc(C)c1C(=O)OCc1csc(-c2ccccc2)n1	< 70
CCOc1ccccc1NC(=O)/C=C/c1nnc2c3ccccc3cnn12	< 70
Cc1cc(O)nc(-n2nc(C)cc2C)n1	< 70
COC(=O)Cc1[nH]n(-c2nc3ccccc3s2)c(=O)c1C(C)=NCCO	< 70
CCN(CC)CCCNc1ccnc2cc3ccccc3cc12	< 70
O=C(Nc1ccc(N2CCN(c3ncccc3C(F)(F)F)CC2)nc1)c1cccs1	< 70
OCCNCc1cc(Br)ccc1OCc1ccc(F)cc1	< 70
Cc1cc(Cl)c(S(=O)(=O)N2CCCC2)cc1OCC(=O)NC1CCCCC1	< 70
CCCCCCc1cc(O)c2c3c(c(=O)oc2c1)CCC(C)C3 (configuration not stated)	< 70
N#C/C(C(=O)c1ccc([N+](=O)[O-])s1)=C1\Nc2ccccc2S1	< 70
COc1cc(C2=NCCN2)ccc1-n1cc(-c2cccc(C3=NCCN3)c2)nn1	< 70
CCOc1ccc(OCC(=O)Nc2cc(C)cc(C)c2)cc1	< 70

SMILES	growth inhibition at single dose [%]
CC(C)c1ccc(CNCC(O)c2ccccc2)cc1 (configuration not stated)	< 70
O=C(Nc1nc(CN2CCOCC2)cs1)c1ccc(-c2ccc(Cl)cc2)s1	< 70
Cc1nc(/C=C/C(=O)Nc2nc3ccccc3[nH]2)cs1	< 70
N=C(N)Nc1ccc(-c2ccc(-c3ccc(N=C(N)N)c(Cl)c3)o2)cc1Cl	< 70
CC(C)(C)NS(=O)(=O)c1cccc2c(N)cccc12	< 70
CCN(CC)CCn1c(=N)n(CC(O)c2ccc(Cl)c(Cl)c2)c2ccccc21 (configuration not stated)	< 70
c1ccc(C[C@@H]2CN(c3nccc(Oc4ccc(-n5ccnc5)cc4)n3)CCN2)cc1	< 70
CC(O)(c1ccc(Cl)cc1)C(CN1CCCCC1)c1ccccc1 (configuration not stated)	< 70
Cc1cc(C)c2nc(N3CCC(C(=O)NCCCN4CCC(N5CCCCC5)CC4)CC3)sc2c1	< 70
COCCN(C(=O)Cc1cccs1)C(C(=O)NCc1ccc(OC)cc1)c1ccc(C(C)C)cc1 (configuration not stated)	< 70
O=C(Nc1ccc(I)cc1)C1CCN(C(=O)c2ccncc2)CC1	< 70
COc1ccc(S(=O)(=O)N(Cc2ccc(C(=O)NC3CC3)cc2)C2CC2)cc1OC	< 70
COc1cccc(-c2nc3c(N4CCCC4)cccc3n2CC2CCCN2)n1 (configuration not stated)	< 70
O=C1c2ccccc2-c2nnc(-c3ccc(Br)cc3)cc21	< 70
O=c1cc(NC2CCN(CCCc3ccccc3)CC2)c2cc(Cl)ccc2o1	< 70
CC(C)(C)n1ncc(C(=O)NCCOc2ccccc2)c1C(F)(F)F	< 70
O=C(Nc1nccs1)c1ccc(N2CCCCCC2)nc1	< 70
COc1cc(C(=O)Nc2nc3c(cc4c5c(cccc53)CC4)s2)cc(OC)c1OC	< 70
O=C(Nc1ccccc1O)c1ccc(Oc2cccc(C(=O)Nc3ccccc3O)c2)cc1	< 70
Oc1c(CN2CCN(c3ccccc3F)CC2)cc(Br)c2cccnc12	< 70
COc1ccnc(Nc2ccc3c(c2)nc2n3CCCCC2)n1	< 70

SMILES	growth inhibition at single dose [%]
CC(=O)NC[C@@H]1CN(c2ccc(N3CCOCC3)c(F)c2)C(=O)O1	< 70
Cc1ccc(C(=O)Nc2ccc(S(=O)(=O)O)c3cc(S(=O)(=O)O)cc(S(=O)(=O)O)c23)cc1NC(=O)c1cccc(NC(=O)Nc2cccc(C(=O)Nc3cc(C(=O)Nc4ccc(S(=O)(=O)O)c5cc(S(=O)(=O)O)cc(S(=O)(=O)O)c45)ccc3C)c2)c1	< 70
CCOc1ccc2cc(-c3nn(C(C)(C)C)c(N)c3C(N)=O)cnc2c1	< 70
CCN(CC)S(=O)(=O)c1ccc(Cl)c(C(=O)Nc2ccc3nc(C)sc3c2)c1	< 70
CN1CCN(c2nc(Nc3ccc(O)cc3)nc3ccccc23)CC1	< 70
CCCc1c(C)nc2ccccc2c1O	< 70
Cc1ccccc1CN1CCC(O)(c2ccc(Cl)c(C(F)(F)F)c2)CC1	< 70
O=C(Nc1ccc(-c2nc3ccccc3[nH]2)cc1)C1CCC1	< 70
COc1ccc(N(Cc2nc(-c3cccs3)oc2C)S(=O)(=O)c2cccs2)cc1	< 70
Cc1ccccc1-n1c(C)cc(/C=C(\C#N)C(=O)NCC2CCCO2)c1C (configuration not stated)	< 70
O=C(NC1CC1)c1ccc(N2CCC(Cc3ccccc3)CC2)nc1	< 70
O=C(CN1CCOCC1)Nc1ccc2ncnc(Nc3ccc(OCc4cccc(F)c4)c(Cl)c3)c2c1	< 70
c1ccc(Oc2ccc(-c3cc(CN4CCOCC4)[nH]n3)cc2)cc1	< 70
CC(Oc1cccc(Cl)c1)C(=O)Nc1ccc2oc(-c3ccncc3)nc2c1 (configuration not stated)	< 70
O=C(Nc1cccc(-c2nc3ccccc3[nH]2)c1)c1cccc(NC(=O)c2ccco2)c1	< 70
CC(C)c1ccc(C2C3CCc4ccccc4C3=NN2C)cc1 (configuration not stated)	< 70
COc1cc(OC)c(N(C)C(=O)c2cc3c(s2)-c2ccccc2S(=O)(=O)C3)cc1Cl	< 70
CCOC(=O)c1nn(CCc2ccccc2)c2c1CN(C(=O)c1cc(C)n[nH]1)CC2	< 70
CC1CCc2[nH]c3ccc(C(=O)Nc4ccccc4N4CCCCC4)cc3c2C1 (configuration not stated)	< 70
CCCCc1ccc(NC(=O)Nc2ccc(O[C@H]3CCCC[C@@H]3N(C)c3ccccc3)c(F)c2)cc1	< 70
CN(C)CCNc1nc(-c2ccco2)c2c(c1C#N)CCCC2	< 70

SMILES	growth inhibition at single dose [%]
NC(=O)c1cc(NC(=O)c2cccs2)ccc1N1CCCCC1	< 70
Cc1nccnc1-c1ccnn1C(=O)Nc1cc(Cl)cc(Cl)c1	< 70
Cc1cccc(C2CC(=O)c3cnn(-c4nc(C)cc(C)n4)c3C2)c1 (configuration not stated)	< 70
O=C(CN1C(=O)CSc2ccc(C(F)(F)F)cc21)Nc1ccc(Cl)cc1	< 70
c1cc(C2=NCCN2)cc(-c2cc(-c3ccc(C4=NCCN4)cc3)no2)c1	< 70
CCn1nnnc1Sc1nc(C)nc2sc3c(c12)CCC3	< 70
CC(NC(C)c1ccc(Cl)cc1)C(=O)Nc1sccc1C(N)=O (configuration not stated)	< 70
O=C(Nc1ccc([N+](=O)[O-])cc1)Nc1cccnc1Cl	< 70
C[C@H]1c2cccc(O)c2C(=O)C2=C(O)[C@]3(O)C(=O)C(C(N)=O)=C(O)[C@@H](N(C)C)[C@@H]3[C@@H](O)[C@@H]21	< 70
CC(C)NCC(=O)Nc1cccc(C(=O)Nc2cccc(C(F)(F)F)c2)c1	< 70
CC(Oc1ccc2ccc(=O)oc2c1)C(=O)N1CCc2ccccc21 (configuration not stated)	< 70
COc1ccc(-c2csc3ncnc(Sc4nnc(-c5cccc(C)c5)n4CC(N)=O)c23)cc1	< 70
CCOC(=O)Cc1ccc(NC(=O)c2ccc(C(C)(C)C)cc2)cc1	< 70
Nc1c2c(nc3sc4c(c13)CCCC4)CCCC2	< 70
Cc1ccc(/C=C/C(=O)NC2=NCCS2)c(Br)c1	< 70
CS(=O)(=O)c1ccccc1C(=O)N(Cc1ccccc1)c1ccccc1	< 70
O=C(Nc1ccc(N2CCCC2)cn1)C1CC=CCC1 (configuration not stated)	< 70
COc1ccc(CN2CCN(C(=O)c3ccc(-n4cccn4)cc3)CC2)cc1F	< 70
O=C(Nc1nc2c(s1)CCCC2)c1cc(F)c(F)c(F)c1F	< 70
